Test results published in a compilation of properties of binary mixtures (doi:10.1016/j.molliq.2012.10.030).

Test: xn = mol fraction of the nth substance listed
Conditions: 101 kPa

Cc1ccccc1N + CC[n+]1ccn(C)c1.F[B-](F)(F)F
speed of sound [m/s]
Conditions	293.15 K	298.15 K	303.15 K	308.15 K
x1 = 0.0684	1639.1	1625	1612.5	1600.1
x1 = 0.0786	–	1626.5	–	1601.3
x1 = 0.1243	–	1634.3	1621.2	1607.9
x1 = 0.1783	–	1645.9	1632	1618
x1 = 0.2255	1668.2	1657.2	1643.2	–
x1 = 0.2781	1679.5	1670.1	–	1640.6
x1 = 0.3234	1689.5	–	1667.1	1651.6
x1 = 0.3712	–	–	1678	1662.1
x1 = 0.4096	1706.3	–	1685.2	1669.1
x1 = 0.4763	1716.8	1710.8	–	1679
x1 = 0.5242	1722.8	1716	1700.5	1683.9
x1 = 0.5781	1726.3	1717.7	1701.7	1685
x1 = 0.6254	1725.7	–	1698.4	–
x1 = 0.6771	1723.3	1709.7	1692.5	1675.6
x1 = 0.7226	1716.8	1700.6	1682.6	1665.6
x1 = 0.7683	1708	1689.4	1670.5	1653.2
x1 = 0.8276	1692.8	1671.5	1651.2	1633.6
x1 = 0.8687	1679	1656.7	1635.4	1617.4

Nc1ccccc1 + CC[n+]1ccn(C)c1.F[B-](F)(F)F
speed of sound [m/s]
Conditions	293.15 K	298.15 K	303.15 K	308.15 K
x1 = 0.0697	–	1622.2	1610.3	–
x1 = 0.0803	1635.7	1622.9	–	1598.9
x1 = 0.1286	1640	1626.7	1614.7	1602.6
x1 = 0.1717	–	1631.2	–	1606.5
x1 = 0.2251	1650.5	1637.2	–	1612.4
x1 = 0.2724	1656.5	–	1630.2	1617.6
x1 = 0.3253	1662.9	–	1636.4	1624.1
x1 = 0.3805	1669.9	–	1642.3	1630.2
x1 = 0.4288	1675	1662	1647.5	1634.5
x1 = 0.4681	1679	1666.2	–	1637.9
x1 = 0.5287	–	1670.4	–	1642
x1 = 0.5755	–	1673.2	–	1643
x1 = 0.6258	–	1673.9	–	1643.3
x1 = 0.6802	–	1673.3	1655.5	–
x1 = 0.7231	–	1672	–	1639.2
x1 = 0.7785	1685.7	1667.6	1648.9	1634.7
x1 = 0.8257	1681.7	1663.2	1644.1	1628.9
x1 = 0.8697	–	–	1638.4	–
